Measured values: PubChem BioAssay AID1963840 (Molecular Pharmacology Branch, DTP, NCI, 2024)

Tested on: 695427-040-R-J1-PDC complex spheroid viability
Experiment: Anticancer human tumor 695427-040-R-J1-PDC patient-derived colon adenocarcinoma cell line growth inhibition [POLQ]
Conditions: for IC50: curve of first compound; for viability, T/C: stronger effect = lower value
Procedure, shortened: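 Complex spheroid viability model combining PDC tumour cells with endothelial (HUVEC) and MSC stromal cells. Novobiocin, ART-558 or RP6685 were tested singly and in combination with standard and investigational anticancer drugs. Each was titrated in half-log steps from near clinical Cmax, or from 10 microM where Cmax was unknown.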

[1] = second compound 0.0316 µM, first compound 0.0316 µM
[2] = second compound 0.0316 µM, first compound 0.1 µM
[3] = second compound 0.0316 µM, first compound 0.316 µM
[4] = second compound 0.0316 µM, first compound 1 µM
[5] = second compound 0.1 µM, first compound 0.0316 µM
[6] = second compound 0.1 µM, first compound 0.1 µM
[7] = second compound 0.1 µM, first compound 0.316 µM
[8] = second compound 0.1 µM, first compound 1 µM
[9] = second compound 0.316 µM, first compound 0.0316 µM
[10] = second compound 0.316 µM, first compound 0.1 µM
[11] = second compound 0.316 µM, first compound 0.316 µM
[12] = second compound 0.316 µM, first compound 1 µM
[13] = second compound 1 µM, first compound 0.0316 µM
[14] = second compound 1 µM, first compound 0.1 µM
[15] = second compound 1 µM, first compound 0.316 µM
[16] = second compound 1 µM, first compound 1 µM
[17] = second compound 3.16 µM, first compound 0.0316 µM
[18] = second compound 3.16 µM, first compound 0.1 µM
[19] = second compound 3.16 µM, first compound 0.316 µM
[20] = second compound 3.16 µM, first compound 1 µM
[21] = second compound 10 µM, first compound 0.0316 µM
[22] = second compound 10 µM, first compound 0.1 µM
[23] = second compound 10 µM, first compound 0.316 µM
[24] = second compound 10 µM, first compound 1 µM
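Note: spheroids exposed to compounds for seven days.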
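Throughout, for viability, T/C: 100% = DMSO vehicle control viability.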

Question: For CNCc1ccc(-c2[nH]c3cc(F)cc4c3c2CCNC4=O)cc1 + Cc1cccc(N(C)C(=O)C2C(O)CCN2c2nc(C)cc(C(F)(F)F)c2C#N)c1, which IC50 (second compound 0.0316 µM) is on record?
Answer: > 10000 nM

Question: What about the IC50 (second compound 0.1 µM) of the same molecule?
Answer: > 10000 nM

Question: What about the IC50 (second compound 0.316 µM) of the same molecule?
Answer: > 10000 nM

Question: And the IC50 (second compound 1 µM)?
Answer: > 10000 nM

Question: And the IC50 (second compound 3.16 µM)?
Answer: > 10000 nM

Question: What about the IC50 (second compound 10 µM) of the same molecule?
Answer: > 10000 nM

Question: And the viability, T/C [1]?
Answer: 102%

Question: And the viability, T/C [2]?
Answer: 104%

Question: And the viability, T/C [3]?
Answer: 105%

Question: What about the viability, T/C [4] of the same molecule?
Answer: 96.8%

Question: What about the viability, T/C (second compound 0.0316 µM, first compound 3.16 µM) of the same molecule?
Answer: 108%

Question: And the viability, T/C (second compound 0.0316 µM, first compound 10 µM)?
Answer: 109%

Question: And the viability, T/C [5]?
Answer: 111%

Question: What about the viability, T/C [6] of the same molecule?
Answer: 100%

Question: What about the viability, T/C [7] of the same molecule?
Answer: 95.9%

Question: And the viability, T/C [8]?
Answer: 95.3%

Question: What about the viability, T/C (second compound 0.1 µM, first compound 3.16 µM) of the same molecule?
Answer: 105%

Question: What about the viability, T/C (second compound 0.1 µM, first compound 10 µM) of the same molecule?
Answer: 108%

Question: And the viability, T/C [9]?
Answer: 104%

Question: And the viability, T/C [10]?
Answer: 99.3%

Question: And the viability, T/C [11]?
Answer: 104%

Question: And the viability, T/C [12]?
Answer: 103%

Question: What about the viability, T/C (second compound 0.316 µM, first compound 3.16 µM) of the same molecule?
Answer: 102%

Question: And the viability, T/C (second compound 0.316 µM, first compound 10 µM)?
Answer: 99.6%

Question: What about the viability, T/C [13] of the same molecule?
Answer: 92.7%

Question: And the viability, T/C [14]?
Answer: 93.9%

Question: What about the viability, T/C [15] of the same molecule?
Answer: 93.6%

Question: What about the viability, T/C [16] of the same molecule?
Answer: 98%

Question: What about the viability, T/C (second compound 1 µM, first compound 3.16 µM) of the same molecule?
Answer: 110%

Question: And the viability, T/C (second compound 1 µM, first compound 10 µM)?
Answer: 102%

Question: And the viability, T/C [17]?
Answer: 99%

Question: What about the viability, T/C [18] of the same molecule?
Answer: 98.1%

Question: And the viability, T/C [19]?
Answer: 98.4%

Question: What about the viability, T/C [20] of the same molecule?
Answer: 103%

Question: And the viability, T/C (second compound 3.16 µM, first compound 3.16 µM)?
Answer: 108%

Question: And the viability, T/C (second compound 3.16 µM, first compound 10 µM)?
Answer: 104%

Question: And the viability, T/C [21]?
Answer: 92.3%

Question: And the viability, T/C [22]?
Answer: 92.1%

Question: What about the viability, T/C [23] of the same molecule?
Answer: 88.9%

Question: And the viability, T/C [24]?
Answer: 93.2%

Question: What about the viability, T/C (second compound 10 µM, first compound 3.16 µM) of the same molecule?
Answer: 104%

Question: What about the viability, T/C (second compound 10 µM, first compound 10 µM) of the same molecule?
Answer: 104%

Question: With COc1cccc(OCCCN)c1-c1cc(Nc2cnc(C#N)cn2)n[nH]1 + Cc1cccc(N(C)C(=O)C2C(O)CCN2c2nc(C)cc(C(F)(F)F)c2C#N)c1 as the molecule, how does the IC50 (second compound 0.0316 µM) read?
Answer: > 1000 nM

Question: And the IC50 (second compound 0.1 µM)?
Answer: > 1000 nM

Question: And the IC50 (second compound 0.316 µM)?
Answer: > 1000 nM

Question: And the IC50 (second compound 1 µM)?
Answer: > 1000 nM

Question: What about the IC50 (second compound 3.16 µM) of the same molecule?
Answer: > 1000 nM

Question: And the IC50 (second compound 10 µM)?
Answer: 295 nM

Question: What about the viability, T/C (second compound 0.0316 µM, first compound 0.00316 µM) of the same molecule?
Answer: 95.4%

Question: And the viability, T/C (second compound 0.0316 µM, first compound 0.01 µM)?
Answer: 107%

Question: And the viability, T/C [1]?
Answer: 96%

Question: What about the viability, T/C [2] of the same molecule?
Answer: 82.5%

Question: What about the viability, T/C [3] of the same molecule?
Answer: 70.5%

Question: What about the viability, T/C [4] of the same molecule?
Answer: 51%

Question: What about the viability, T/C (second compound 0.1 µM, first compound 0.00316 µM) of the same molecule?
Answer: 109%

Question: And the viability, T/C (second compound 0.1 µM, first compound 0.01 µM)?
Answer: 95.7%

Question: What about the viability, T/C [5] of the same molecule?
Answer: 88.3%

Question: What about the viability, T/C [6] of the same molecule?
Answer: 80.1%

Question: What about the viability, T/C [7] of the same molecule?
Answer: 71.3%

Question: What about the viability, T/C [8] of the same molecule?
Answer: 48.3%

Question: What about the viability, T/C (second compound 0.316 µM, first compound 0.00316 µM) of the same molecule?
Answer: 105%

Question: And the viability, T/C (second compound 0.316 µM, first compound 0.01 µM)?
Answer: 97.5%

Question: What about the viability, T/C [9] of the same molecule?
Answer: 87%

Question: And the viability, T/C [10]?
Answer: 77%

Question: What about the viability, T/C [11] of the same molecule?
Answer: 67.8%

Question: And the viability, T/C [12]?
Answer: 52.5%

Question: What about the viability, T/C (second compound 1 µM, first compound 0.00316 µM) of the same molecule?
Answer: 105%

Question: What about the viability, T/C (second compound 1 µM, first compound 0.01 µM) of the same molecule?
Answer: 95.3%

Question: And the viability, T/C [13]?
Answer: 91.6%

Question: What about the viability, T/C [14] of the same molecule?
Answer: 75%

Question: What about the viability, T/C [15] of the same molecule?
Answer: 70.4%

Question: And the viability, T/C [16]?
Answer: 51.8%

Question: And the viability, T/C (second compound 3.16 µM, first compound 0.00316 µM)?
Answer: 100%

Question: What about the viability, T/C (second compound 3.16 µM, first compound 0.01 µM) of the same molecule?
Answer: 87.8%

Question: And the viability, T/C [17]?
Answer: 86.5%

Question: And the viability, T/C [18]?
Answer: 82%

Question: And the viability, T/C [19]?
Answer: 69.7%

Question: What about the viability, T/C [20] of the same molecule?
Answer: 55.3%

Question: What about the viability, T/C (second compound 10 µM, first compound 0.00316 µM) of the same molecule?
Answer: 85.9%

Question: What about the viability, T/C (second compound 10 µM, first compound 0.01 µM) of the same molecule?
Answer: 89.1%

Question: And the viability, T/C [21]?
Answer: 75.8%

Question: And the viability, T/C [22]?
Answer: 63.7%

Question: And the viability, T/C [23]?
Answer: 48.8%

Question: And the viability, T/C [24]?
Answer: 43.5%
